Results as given in the NIST ThermoML archive (doi:10.1021/acs.jced.5b01104).
± gives the expanded uncertainty stated by the source.

Conditions: Liquid, Chromatography

Compound: O [water]
- vapor or sublimation pressure (412.6 K): 356 ± 28 kPa
- vapor or sublimation pressure (443.2 K): 792 ± 62 kPa
- vapor or sublimation pressure (483.2 K): 1902 ± 150 kPa
